This experiment concerns the target IDO1 (Homo sapiens, UniProt P14902). The experiment in a line: Biochemical IDO1 assay (NFK GreenScreen). Details: Recombinant full-length IDO1 (Seegers, N., et al.) and all other assay components were diluted in IDO1 reaction buffer; made in house. As to conditions: recombinant full-length IDO1 25 nM, L-tryptophan 100 μM, NFK Green detection; read-out: IC50, inhibitory potency on IDO1. On the procedure:
Inhibition of IDO1 activity can be measured by determining the enzymatic conversion of L-tryptophan into N-formylkynurenine (NFK) in a reaction mixture containing IDO1 and test compound. The formation of NFK can be detected directly by, for instance, high-performance liquid chromatography (HPLC) methods, or by intrinsic fluorescence.
Compounds were serially diluted in dimethylsulfoxide (DMSO) and finally in IDO1 reaction buffer, consisting of 50 mM NaH2PO4, pH7.0, supplemented with 0.05% Tween-20 (cat. No. P7949; Sigma Aldrich) and 1% glycerol. Recombinant full-length IDO1 (Seegers, N., et al.) and all other assay components were diluted in IDO1 reaction buffer. […] Subsequently, 10 μl of 0.4 mM of the substrate L-tryptophan was added, i.e., the final concentration of L-tryptophan was 100 μM. The DMSO concentration in the assay was 0.3%. […] Incubation was continued for 60 min at room temperature. Then, 10 μl of NFK Green™ (NTRC, Oss, The Netherlands) was added, the plate was sealed, and the reaction was developed for 3 hours at 37° C. To determine the production of N-formyl kynurenine (NFK), the seal was removed and fluorescence was read on an EnVision multimode reader (Perkin Elmer, Waltham, Mass., USA). IC50 were calculated using XLfit™ software (ID Business Solutions, Ltd., Surrey, U.K.).

Several values for one entry are separate records, joined by “and”; a condition that tells them apart may be missing. Identical values can stand only once. A value given as a limit tells only on which side of the number the result lay.

What is called IC50 is the concentration needed to halve the response being measured.

Sequence of IDO1 (P14902 whole entry, species assumed): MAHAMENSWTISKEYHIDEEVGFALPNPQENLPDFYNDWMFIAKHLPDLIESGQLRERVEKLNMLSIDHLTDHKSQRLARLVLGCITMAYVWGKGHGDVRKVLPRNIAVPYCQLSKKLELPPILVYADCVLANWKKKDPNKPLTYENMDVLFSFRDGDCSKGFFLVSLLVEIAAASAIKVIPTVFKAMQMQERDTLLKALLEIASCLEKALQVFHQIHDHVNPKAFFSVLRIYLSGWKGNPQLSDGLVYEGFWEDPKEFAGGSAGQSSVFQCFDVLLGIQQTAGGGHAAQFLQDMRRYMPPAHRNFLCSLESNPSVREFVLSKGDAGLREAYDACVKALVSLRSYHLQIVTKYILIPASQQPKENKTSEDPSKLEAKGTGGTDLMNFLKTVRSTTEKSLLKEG

For the compound `O=C1CN(C(=O)c2ccc(F)cc2)C(c2ccc(F)c(Br)c2)N1O` (stereo not shown) [Example 40, 2-(3-Bromo-4-fluoro-phenyl)-1-(4-fluorobenzoyl)-3-hydroxy-imidazolidin-4-one], the 50% inhibitory concentration (IC50) was ≤ 5 µM and 1 to 5 µM.

As to `COc1ccc(C(=O)N2CC(=O)N(O)C2c2ccc(F)c(Br)c2)cc1` (stereo not shown) [Example 47, 2-(3-Bromo-4-fluoro-phenyl)-3-hydroxy-1-(4-methoxybenzoyl)imidazolidin-4-one], the half-maximal inhibitory concentration (IC50) was ≤ 5 µM and 1 to 5 µM.

For the compound `O=C1CN(C(=O)c2c(Cl)cccc2Cl)C(c2ccc(F)c(Br)c2)N1O` (stereo not shown) [Example 48, 2-(3-Bromo-4-fluoro-phenyl)-1-(2,6-dichlorobenzoyl)-3-hydroxy-imidazolidin-4-one], the 50% inhibitory concentration (IC50) was ≤ 5 µM and 1 to 5 µM.

Consider `O=C1CN(C(=O)c2ccccc2)C(c2ccc(F)c(Cl)c2)N1O` (stereo not shown) [Example 50, 1-Benzoyl-2-(3-chloro-4-fluoro-phenyl)-3-hydroxy-imidazolidin-4-one], for which the 50% inhibitory concentration (IC50) was ≤ 5 µM and 1 to 5 µM.

As to `O=C1CN(C(=O)c2ccccc2)C(c2cccc(Cl)c2)N1O` (stereo not shown) [Example 60, 1-Benzoyl-2-(3-chlorophenyl)-3-hydroxy-imidazolidin-4-one], the 50% inhibitory concentration (IC50) is ≤ 5 µM and 1 to 5 µM.

For `O=C1CN(C(=O)c2cccnc2Cl)C(c2cccc(Br)c2)N1O` (stereo not shown) [Example 61, 2-(3-Bromophenyl)-1-(2-chloropyridine-3-carbonyl)-3-hydroxy-imidazolidin-4-one], the IC50 is ≤ 5 µM and 1 to 5 µM.

For the compound `O=C1CN(C(=O)c2c(F)cccc2F)C(c2ccnc(Br)c2)N1O` (stereo not shown) [Example 65, 2-(2-Bromo-4-pyridyl)-1-(2,6-difluorobenzoyl)-3-hydroxy-imidazolidin-4-one], the half-maximal inhibitory concentration (IC50) was ≤ 5 µM and 1 to 5 µM.

As to `Cc1cccc(C2N(O)C(=O)CN2C(=O)c2c(F)cccc2F)c1` (stereo not shown) [Example 69, 1-(2,6-Difluorobenzoyl)-3-hydroxy-2-(m-tolyl)imidazolidin-4-one], the IC50 is ≤ 5 µM and 1 to 5 µM.

On to `O=C1CN(C(=O)c2c(F)cccc2F)C(c2cccc(Br)c2F)N1O` (stereo not shown) [Example 70, 2-(3-Bromo-2-fluoro-phenyl)-1-(2,6-difluorobenzoyl)-3-hydroxy-imidazolidin-4-one], for which the 50% inhibitory concentration (IC50) was ≤ 5 µM and 1 to 5 µM.

In the case of `O=C1CN(C(=O)c2ccc(Cc3ccccc3)cc2)C(c2cccc(Br)c2)N1O` (stereo not shown) [Example 74, 1-(4-Benzylbenzoyl)-2-(3-bromophenyl)-3-hydroxy-imidazolidin-4-one], the concentration for half-maximal inhibition (IC50) was ≤ 5 µM and 1 to 5 µM.

As to `O=C1CN(C(=O)c2c(F)ccc([N+](=O)[O-])c2F)C(c2cccc(Br)c2)N1O` (stereo not shown) [Example 75, 2-(3-Bromophenyl)-1-(2,6-difluoro-3-nitro-benzoyl)-3-hydroxy-imidazolidin-4-one], the IC50 is at most 1 µM.

In the case of `CC(=O)Nc1ccc(F)c(C(=O)N2CC(=O)N(O)C2c2cccc(Br)c2)c1F` (stereo not shown) [Example 77, N-[3-[2-(3-bromophenyl)-3-hydroxy-4-oxo-imidazolidine-1-carbonyl]-2,4-difluoro-phenyl]acetamide], the half-maximal inhibitory concentration (IC50) was at most 1 µM.

`CS(=O)(=O)Nc1ccc(F)c(C(=O)N2CC(=O)N(O)C2c2cccc(Br)c2)c1F` (stereo not shown) [Example 78, N-[3-[2-(3-bromophenyl)-3-hydroxy-4-oxo-imidazolidine-1-carbonyl]-2,4-difluoro-phenyl]methanesulfonamide]: the half-maximal inhibitory concentration (IC50) was ≤ 5 µM and 1 to 5 µM.

Turning to `Cc1cccc(F)c1C(=O)N1CC(=O)N(O)C1c1cccc(Br)c1` (stereo not shown) [Example 88, 2-(3-Bromophenyl)-1-(2-fluoro-6-methyl-benzoyl)-3-hydroxy-imidazolidin-4-one], the 50% inhibitory concentration (IC50) is ≤ 5 µM and 1 to 5 µM.

With `O=C1CN(C(=O)c2ncccc2F)C(c2cccc(Br)c2)N1O` (stereo not shown) [Example 89, 2-(3-Bromophenyl)-1-(3-fluoropyridine-2-carbonyl)-3-hydroxy-imidazolidin-4-one], the half-inhibitory concentration (IC50) was ≤ 5 µM and 1 to 5 µM.

Consider `O=C1CN(C(=O)c2cccs2)C(c2cccc(Br)c2)N1O` (stereo not shown) [Example 90, 2-(3-Bromophenyl)-3-hydroxy-1-(thiophene-2-carbonyl)imidazolidin-4-one], for which the IC50 is ≤ 5 µM and 1 to 5 µM.

Turning to `O=C1CN(C(=O)c2ccc(Oc3ccccc3)cc2)C(c2cccc(Br)c2)N1O` (stereo not shown) [Example 91, 2-(3-Bromophenyl)-3-hydroxy-1-(4-phenoxybenzoyl)imidazolidin-4-one], the half-inhibitory concentration (IC50) is ≤ 5 µM and 1 to 5 µM.

Turning to `CC(C)c1cc(C(=O)N2CC(=O)N(O)C2c2cccc(Br)c2)no1` (stereo not shown) [Example 96, 2-(3-Bromophenyl)-3-hydroxy-1-(5-isopropylisoxazole-3-carbonyl)imidazolidin-4-one], the half-maximal inhibitory concentration (IC50) was ≤ 5 µM and 1 to 5 µM.

`CS(=O)(=O)c1ccc(-c2ccc(C(=O)N3CC(=O)N(O)C3c3cccc(Br)c3)cc2)cc1` (stereo not shown) [Example 97, 2-(3-Bromophenyl)-3-hydroxy-1-[4-(4-methylsulfonylphenyl)benzoyl]imidazolidin-4-one]: the concentration for half-maximal inhibition (IC50) was ≤ 5 µM and 1 to 5 µM.

With `CS(=O)(=O)N1CCC(C(=O)N2CC(=O)N(O)C2c2cccc(Br)c2)CC1` (stereo not shown) [Example 100, 2-(3-Bromophenyl)-3-hydroxy-1-(1-methylsulfonylpiperidine-4-carbonyl)imidazolidin-4-one], the half-maximal inhibitory concentration (IC50) is ≤ 5 µM and 1 to 5 µM.

In the case of `NS(=O)(=O)N1CCC(C(=O)N2CC(=O)N(O)C2c2cccc(Br)c2)CC1` (stereo not shown) [Example 101, 4-[2-(3-Bromophenyl)-3-hydroxy-4-oxo-imidazolidine-1-carbonyl]piperidine-1-sulfonamide], the IC50 is ≤ 5 µM and 1 to 5 µM.

Take `O=C1CN(C(=O)c2ccc3cn[nH]c3c2)C(c2cccc(Br)c2)N1O` (stereo not shown) [Example 103, 2-(3-Bromophenyl)-3-hydroxy-1-(1H-indazole-6-carbonyl)imidazolidin-4-one]: the 50% inhibitory concentration (IC50) was ≤ 5 µM and 1 to 5 µM.

As for `NCC#Cc1cc(F)c(C(=O)N2CC(=O)N(O)C2c2cccc(Br)c2)c(F)c1` (stereo not shown) [Example 109, 1-[4-(3-Aminoprop-1-ynyl)-2,6-difluoro-benzoyl]-2-(3-bromophenyl)-3-hydroxy-imidazolidin-4-one], the concentration for half-maximal inhibition (IC50) is at most 1 µM.

As for `CS(=O)(=O)NCC#Cc1cc(F)c(C(=O)N2CC(=O)N(O)C2c2cccc(Br)c2)c(F)c1` (stereo not shown) [Example 110, N-[3-[4-[2-(3-bromophenyl)-3-hydroxy-4-oxo-imidazolidine-1-carbonyl]-3,5-difluoro-phenyl]prop-2-ynyl]methanesulfonamide], the IC50 was at most 1 µM.

As to `NS(=O)(=O)NCC#Cc1cc(F)c(C(=O)N2CC(=O)N(O)C2c2cccc(Br)c2)c(F)c1` (stereo not shown) [Example 111, 2-(3-Bromophenyl)-1-[2,6-difluoro-4-[3-(sulfamoylamino)prop-1-ynyl]benzoyl]-3-hydroxy-4-oxo-imidazolidine], the IC50 is at most 1 µM.

For `CC(C)(N)C#Cc1cc(F)c(C(=O)N2CC(=O)N(O)C2c2cccc(Br)c2)c(F)c1` (stereo not shown) [Example 112, 1-[4-(3-Amino-3-methyl-but-1-ynyl)-2,6-difluoro-benzoyl]-2-(3-bromophenyl)-3-hydroxy-imidazolidin-4-one], the IC50 is ≤ 5 µM and 1 to 5 µM.

Turning to `CC(=O)NC(C)(C)C#Cc1cc(F)c(C(=O)N2CC(=O)N(O)C2c2cccc(Br)c2)c(F)c1` (stereo not shown) [Example 113, N-[3-[4-[2-(3-bromophenyl)-3-hydroxy-4-oxo-imidazolidine-1-carbonyl]-3,5-difluoro-phenyl]-1,1-dimethyl-prop-2-ynyl]acetamide], the IC50 is ≤ 5 µM and 1 to 5 µM.

As to `O=C1CN(C(=O)c2c(F)cc(-c3ccccc3)cc2F)C(c2cccc(Br)c2)N1O` (stereo not shown) [Example 117, 2-(3-Bromophenyl)-1-(2,6-difluoro-4-phenyl-benzoyl)-3-hydroxy-imidazolidin-4-one], the 50% inhibitory concentration (IC50) was at most 1 µM.

`O=C1CN(C(=O)c2c(F)cc(-c3ccc(F)s3)cc2F)C(c2cccc(Br)c2)N1O` (stereo not shown) [Example 121, 2-(3-Bromophenyl)-1-[2,6-difluoro-4-(5-fluoro-2-thienyl)benzoyl]-3-hydroxy-imidazolidin-4-one]: the concentration for half-maximal inhibition (IC50) was ≤ 5 µM and 1 to 5 µM.

Regarding `O=C1CN(C(=O)c2c(F)cc(-c3cccnc3)cc2F)C(c2cccc(Br)c2)N1O` (stereo not shown) [Example 123, 2-(3-Bromophenyl)-1-[2,6-difluoro-4-(3-pyridyl)benzoyl]-3-hydroxy-imidazolidin-4-one], the IC50 was ≤ 5 µM and 1 to 5 µM.

For `O=C1CN(Cc2ccccc2F)C(c2ccc(F)c(Br)c2)N1O` (stereo not shown) [Example 126, 2-(3-Bromo-4-fluoro-phenyl)-1-[(2-fluorophenyl)methyl]-3-hydroxy-imidazolidin-4-one], the half-inhibitory concentration (IC50) was at most 1 µM.

As for `CC(C)(C#Cc1cc(F)c(C(=O)N2CC(=O)N(O)C2c2cccc(Br)c2)c(F)c1)NS(N)(=O)=O` (stereo not shown) [Example 128, 2-(3-Bromophenyl)-1-[2,6-difluoro-4-[3-methyl-3-(sulfamoylamino)but-1-ynyl]benzoyl]-3-hydroxy-4-oxo-imidazolidine], the IC50 is at most 1 µM.

`CS(=O)(=O)NCc1cc(F)c(C(=O)N2CC(=O)N(O)C2c2cccc(Br)c2)c(F)c1` (stereo not shown) [Example 130, N-[[4-[2-(3-bromophenyl)-3-hydroxy-4-oxo-imidazolidine-1-carbonyl]-3,5-difluoro-phenyl]methyl]methanesulfonamide]: the IC50 is at most 1 µM.

As for `O=C1CN(C(=O)c2c(F)cc(CCC3CCCCC3)cc2F)C(c2cccc(Br)c2)N1O` (stereo not shown) [Example 131, 2-(3-Bromophenyl)-1-[4-(2-cyclohexylethyl)-2,6-difluoro-benzoyl]-3-hydroxy-imidazolidin-4-one], the half-maximal inhibitory concentration (IC50) is ≤ 5 µM and 1 to 5 µM.
